Reference: the NIST ThermoML archive (doi:10.1016/j.fluid.2019.112274)

Conditions: Liquid; for thermal diffusivity: Dynamic light scattering; for speed of sound: Brillouin light scattering

CCCCCCCCCC(=O)OCC [ethyl decanoate]
Conditions | speed of sound [m/s] | thermal diffusivity [m2/s]
489.54 K, 10000 kPa | – | 5.87e-08
489.57 K, 100 kPa | – | 5.52e-08
490.41 K, 5000 kPa | 715.7 | –
490.81 K, 3000 kPa | 693.8 | –
492.02 K, 10000 kPa | 764.5 | –
499.48 K, 10000 kPa | 745.9 | –
500.41 K, 5000 kPa | 690.3 | –
500.55 K, 7000 kPa | 711.6 | –
500.76 K, 3000 kPa | 667.8 | –
504.58 K, 5000 kPa | – | 5.45e-08
504.77 K, 7000 kPa | – | 5.52e-08
504.79 K, 3000 kPa | – | 5.39e-08
504.94 K, 10000 kPa | – | 5.62e-08
505.38 K, 100 kPa | – | 5.28e-08
509.33 K, 10000 kPa | 722.7 | –
510.27 K, 5000 kPa | 666.3 | –
510.41 K, 7000 kPa | 686.9 | –
510.65 K, 3000 kPa | 642.8 | –
519.26 K, 3000 kPa | – | 5.2e-08
519.36 K, 5000 kPa | – | 5.26e-08
519.41 K, 7000 kPa | – | 5.33e-08
519.6 K, 10000 kPa | – | 5.43e-08
520.04 K, 10000 kPa | 696.8 | –
520.19 K, 3000 kPa | 619.7 | –
520.25 K, 5000 kPa | 642.5 | –
520.27 K, 7000 kPa | 664.6 | –
529.04 K, 10000 kPa | 678 | –
529.91 K, 5000 kPa | 619.5 | –
530.11 K, 7000 kPa | 641.3 | –
530.36 K, 3000 kPa | 595.4 | –
534.46 K, 5000 kPa | – | 5.06e-08
534.75 K, 7000 kPa | – | 5.12e-08
534.77 K, 3000 kPa | – | 5e-08
535.01 K, 10000 kPa | – | 5.22e-08
540.06 K, 7000 kPa | 618.1 | –
540.09 K, 10000 kPa | 651.8 | –
540.12 K, 5000 kPa | 595.3 | –
540.66 K, 3000 kPa | 570.8 | –
548.94 K, 3000 kPa | 551.9 | –
549.74 K, 5000 kPa | 574.5 | –
549.76 K, 3000 kPa | – | 4.77e-08
549.87 K, 10000 kPa | 630.6 | –
549.96 K, 5000 kPa | – | 4.84e-08
549.97 K, 7000 kPa | – | 4.9e-08
549.99 K, 7000 kPa | 596.7 | –
550.17 K, 10000 kPa | – | 4.99e-08
558.46 K, 3000 kPa | 529.8 | –
559.93 K, 5000 kPa | 551.9 | –
561 K, 10000 kPa | 607 | –
562.07 K, 7000 kPa | 570.2 | –
565.49 K, 10000 kPa | – | 4.76e-08
565.86 K, 5000 kPa | – | 4.61e-08
565.87 K, 7000 kPa | – | 4.67e-08
566.27 K, 3000 kPa | – | 4.55e-08
